Patent US20190231748A1, “COMPOSITION FOR VAGINA AND ANTIMICROBIAL AGENT COMBINATION FOR USE IN PREPARING COMPOSITION FOR VAGINA” (Shenzhen Eulikan Biotechnology Co., Ltd., priority 2016, published 2019)

What was measured:
Type in all cases: cell-based
[1] = test system: three strains of Escherichia coli isolated from the vaginal secretion of patients with vaginitis; experiment: Growth in enrichment broth (turbidity after 24 hours), clinical strains; set-up: key to growth of Escherichia coli, Bacterial strain 1 / growth of Escherichia coli, Bacterial strain 2 / growth of Escherichia coli, Bacterial strain 3: +: means the growth of bacteria; −: means no growth of bacteria; conditions: for growth of Escherichia coli, Bacterial strain 1 / growth of Escherichia coli, Bacterial strain 2 / growth of Escherichia coli, Bacterial strain 3: enrichment broth, 37° C. for 24 hours, turbidity
From the text: (§1) a. Experimental strains, three strains of Escherichia coli and three strains of Staphylococcus aureus, which were all isolated from the vaginal secretion of patients with vaginitis.
(§2) b. Enrichment broth, which contained 1 percent of yeast extract powder, 9 percent of sucrose, 0.025 percent of manganese sulfate (MnSO4.4H2O), 0.058 percent of magnesium sulfate (MgSO4.7H2O), and 0.9 percent of lactic acid, the pH value of the broth was adjusted to 4.8, and the enrichment broth was sterilized for later use;
(§3) (2). Experimental groups: the requirements for aseptic operation technique were strictly followed to prepare the sterile test tubes:
(§4) a. sodium benzoate group: each test tube contained 5 milliliters of enrichment broth, and was added in 0.05 percent (weight/volume) sodium benzoate;
(§5) b. 2-phenylethanol group: each test tube contained 5 milliliters of enrichment broth, and was added in 0.05 percent (weight/volume) of 2-phenylethanol;
(§6) c. sodium propionate group: each test tube contained 5 milliliters of enrichment broth, and was added in 0.25 percent (weight/volume) of sodium propionate;
(§7) d. “a group of the combinations of sodium benzoate and sodium propionate”: each test tube contained 5 milliliters of enrichment broth, and was added in 0.05 percent (weight/volume) of sodium benzoate and 0.25 percent (weight/volume) of sodium propionate;
(§8) e. “a group of the combinations of sodium benzoate and 2-phenylethanol”: each test tube contained 5 milliliters of enrichment broth, and was added in 0.05 percent (weight/volume) of sodium benzoate and 0.05 percent (weight/volume) of 2-phenylethanol;
(§9) f. “a group of the combinations of sodium propionate and 2-phenylethanol”: each test tube contained 5 milliliters of enrichment broth, and was added in 0.25 percent (weight/volume) of sodium propionate and 0.05 percent (weight/volume) of 2-phenylethanol;
(§10) g. “a group of the combinations of sodium benzoate, sodium propionate and 2-phenylethanol”: each test tube contained 5 milliliters of enrichment broth, and was added in 0.05 percent (weight/volume) of sodium benzoate, 0.25 percent (weight/volume) of sodium propionate, and 0.05 percent (weight/volume) of 2-phenylethanol;
(§11) h. positive control: one tube that contained 5 milliliters of enrichment broth without adding in any of the 2-phenylethanol, sodium benzoate, and sodium propionate, but inoculated the suspension of Escherichia coli or Staphylococcus aureus.
(§12) i. negative control: one tube that contained 5 milliliters of enrichment broth without adding in any of the 2-phenylethanol, sodium benzoate, and sodium propionate, and not inoculated the suspension of Escherichia coli or Staphylococcus aureus.
(§13) The requirements for aseptic operation technique were strictly followed to prepare the bacterial suspensions. The colonies of Escherichia coli and Staphylococcus aureus were diluted with physiological saline respectively to prepare bacterial suspension. The turbidities of the Escherichia coli suspension and the Staphylococcus aureus suspension were adjusted to 0.5 MCF (about 10^8 CFU/ml) by a turbidimeter. 1 milliliter of the 0.5 MCF bacterial suspensions were added into 9 milliliters of the enrichment broth respectively, so each bacterial solution was diluted for ten times to contain 10^7 CFU/ml of bacterial organisms.
(§14) The requirements for aseptic operation technique were strictly followed to take 100 microliters of the prepared bacterial suspensions respectively, and to add the bacterial suspensions into the aforesaid test tubes from a to h as well as positive control tube. No bacterial suspension was added into the negative control tube i.
(§15) The above tubes were cultured in a biochemical incubator at 37° C. for 24 hours, then turbidity changes of the test tube solutions were observed and recorded.
(§16) Remark: “+” means the growth of bacteria; “−” means no growth of bacteria.

[2] = test system: three strains of Staphylococcus aureus isolated from the vaginal secretion of patients with vaginitis; experiment: as above; set-up: key to growth of Staphylococcus aureus, Bacterial strain 1 / growth of Staphylococcus aureus, Bacterial strain 2 / growth of Staphylococcus aureus, Bacterial strain 3: +: means the growth of bacteria; −: means no growth of bacteria; conditions: for growth of Staphylococcus aureus, Bacterial strain 1 / growth of Staphylococcus aureus, Bacterial strain 2 / growth of Staphylococcus aureus, Bacterial strain 3: enrichment broth, 37° C. for 24 hours, turbidity
From the text: as §1, §2, §3, §4, §5, §6, §7, §8, §9, §10, §11, §12, §13, §14, §15, §16

[3] = test system: Lactococcus lactis and Lactobacillus jensenii; experiment: pH of test gel after co-culture of Lactococcus lactis and Lactobacillus jensenii; conditions: cultivated 32 hours
From the text: (§17) 2.1 Experimental strains: one Lactococcus lactis strain and one Lactobacillus jensenii strain, both were clinical isolates.
(§18) The pH value was adjusted to 5.0.
(§19) 2.4 Experimental procedure: the test gel tubes containing different concentrations of antimicrobial agents, as shown in Tables 1 to 6 were inoculated with 100 microliters of Lactobacillus lactis suspension and 100 microliters of Lactobacillus jensenii suspension at the same time. The turbidities of both suspensions were 0.5 MCF. Then the tubes were cultivated at 37° C. and under 5 percent CO2 for 32 hours. Then the changes of the pH values of gels were tested. The gels were smeared, Gram stained, and microscopically examined for the morphology and quantity of bacteria.

[4] = test system: Lactococcus lactis; experiment: Gram-stained smear of co-culture gel, Gram-positive cocci (G+c); conditions: for Smear G^+c: cultivated 32 hours
From the text: as §17, §18, §19

[5] = test system: Lactobacillus jensenii; experiment: Gram-stained smear of co-culture gel, Gram-positive rods (G+b); conditions: for Smear G^+b: cultivated 32 hours
From the text: as §17, §18, §19

[6] = test system: nine strains of Candida albicans; experiment: Growth of Candida in enrichment broth after 24 hours, clinical strains; conditions: agent alone, 0.025 percent (weight/volume), broth pH 4.5, 37° C. 24 hours
From the text: as §2, with “broth:” for “broth,”, “4.5,” for “4.8,”
(2) Experimental groups: the requirements of aseptic operation technique were strictly followed so to prepare the sterile test tubes;
a. sodium benzoate group: each test tube contained 5 milliliters enrichment broth, and was added in 0.025 percent (weight/volume) of sodium benzoate;
b. 2-phenylethanol group: each test tube contained 5 milliliters enrichment broth, and was added in 0.050 percent (weight/volume) of 2-phenylethanol;
c. sodium propionate group: each test tube contained 5 milliliters enrichment broth, and was added in 0.125 percent (weight/volume) of sodium propionate;
d. “a group of the combinations of sodium benzoate and sodium propionate”: each test tube contained 5 milliliters enrichment broth, and was added in 0.025 percent (weight/volume) of sodium benzoate and 0.125 percent (weight/volume) of sodium propionate;
e. “a group of the combinations of sodium benzoate and 2-phenylethanol”: each test tube contained 5 milliliters enrichment broth, and was added in 0.025 percent (weight/volume) of sodium benzoate and 0.050 percent (weight/volume) of 2-phenylethanol;
f. “a group of the combinations of sodium propionate and 2-phenylethanol”: each test tube contained 5 milliliters enrichment broth, and was added in 0.125 percent (weight/volume) of sodium propionate and 0.050 percent (weight/volume) of 2-phenylethanol;
g. “a group of the combinations of sodium benzoate, sodium propionate and 2-phenylethanol”: each test tube contained 5 milliliters enrichment broth, and was added in 0.025 percent (weight/volume) of sodium benzoate, 0.125 percent (weight/volume) of sodium propionate and 0.050 percent (weight/volume) of 2-phenylethanol;
h. positive control: the control tube of enrichment broth without adding in 2-phenylethanol, sodium benzoate, and sodium propionate; but inoculated the suspension of Candida albicans;
i. negative control: the control tube of enrichment broth without adding in 2-phenylethanol, sodium benzoate, and sodium propionate; and without inoculating Candida albicans;
The requirements for aseptic operation technique were strictly followed to prepare the suspension of organism. The colonies of each strain of Candida albicans organism were diluted with physiological saline respectively. The turbidities of the suspensions of Candida albicans organism were adjusted to 0.5 MCF (about 10^8 CFU/ml) by a turbidimeter. 1 milliliter of the 0.5 MCF organism suspension was added into 9 milliliters of enrichment broth. Each suspension was diluted for ten times to contain 10^7 CFU/ml of organisms.
the requirements for aseptic technique were strictly followed to take 100 microliters of the prepared organism suspension respectively and to add the suspension into the test tubes from a to h as well as the positive control tube. No organism suspension was added into the negative control tube i.
The above tubes were cultured in a biochemical incubator at 37° C. for 24 hours. Then the growth of Candida in each tube was observed and recorded.
Remark: “+” means the growth of organisms; “−” means no growth of organisms.

[7] = 0.05 percent (weight/volume) in enrichment broth pH 4.8, 37° C. 24 hours

OCCc1ccccc1 [b. 0.05% 2-phenylethanol]
growth of Escherichia coli, Bacterial strain 1 [1]: + | growth of Escherichia coli, Bacterial strain 2 [1]: + | growth of Escherichia coli, Bacterial strain 3 [1]: + | growth of Staphylococcus aureus, Bacterial strain 1 [2]: + | growth of Staphylococcus aureus, Bacterial strain 2 [2]: + | growth of Staphylococcus aureus, Bacterial strain 3 [2]: +

CCC(=O)[O-].[Na+] [c. 0.25% sodium propionate]
growth of Escherichia coli, Bacterial strain 1 [1]: + | growth of Escherichia coli, Bacterial strain 2 [1]: + | growth of Escherichia coli, Bacterial strain 3 [1]: + | growth of Staphylococcus aureus, Bacterial strain 1 [2]: + | growth of Staphylococcus aureus, Bacterial strain 2 [2]: + | growth of Staphylococcus aureus, Bacterial strain 3 [2]: +

O=C([O-])c1ccccc1.[Na+] [sodium benzoate]
pH value ([3]; 0.035 % in test gel): <3.8 | pH value ([3]; 0.05 % in test gel): <3.8 | pH value ([3]; 0.065 % in test gel): 4.1 | pH value ([3]; 0.1 % in test gel): 4.6 | Smear G^+c ([4]; 0.035 % in test gel): G^+c++++ | Smear G^+c ([4]; 0.05 % in test gel): G^+c++++ | Smear G^+c ([4]; 0.065 % in test gel): G^+c++ | inhibition effect on the growth of Lactococcus lactis ([4]; 0.065 to 0.1 percent): stronger inhibition effect | Smear G^+c ([4]; 0.1 % in test gel): G^+c+ | Smear G^+b ([5]; 0.035 % in test gel): G^+b+ | Smear G^+b ([5]; 0.05 % in test gel): G^+b+ | Smear G^+b ([5]; 0.065 % in test gel): G^+b++ | inhibition effect on the growth of Lactobacillus ([5]; 0.065 to 0.1 percent): weaker inhibition effect | Smear G^+b ([5]; 0.1 % in test gel): G^+b+++ | could inhibit the growth of Escherichia coli (agent alone, words) [1, 7]: no one of the three antimicrobial agents | could inhibit the growth of Staphylococcus aureus (agent alone, words) [2, 7]: no one of the three antimicrobial agents | number of the nine Candida albicans strains that grew [6]: nine
